Assay results from patent publication US10149473B2, “Aminoindanes amides having a high fungicidal activity and their phytosanitary compositions” (STITCHING I-F PRODUCT COLLABORATION, priority 2010, dated 2018).

Columns and labels:
Erysiphe graminis = experiment: Fungicidal activity in preventive application (5 days) against Erysiphe graminis on wheat; format: in vivo, Erysiphe graminis on wheat (Salgemma variety); conditions: 125 ppm, leaf spray, infection 5 days after treatment, evaluation after 12 days, percentage scale 100 = healthy plant, 0 = completely infected plant; for Activity NT (parts which had developed during the test): non-treated parts (NT)
Method: Determination of the Fungicidal Activity in Preventive Application (5 Days) Against Erysiphe graminis on Wheat.
(§1) Leaves of wheat plants of the Salgemma variety, grown in pots in a conditioned environment kept at 20° C. and 70% of relative humidity (R.H.), were treated by spraying on both sides of the leaves with the compounds under examination, dispersed in hydroacetonic solutions at 20% by volume of acetone.
After remaining 5 days in a conditioned environment, the plants were infected under dry conditions by shaking over them, in order to distribute the inoculum, plants previously infected by Erysiphe graminis.
The plants were then maintained in the same cell, in a humidity-saturated environment and at a temperature ranging from 18 to 24° C. for 12 days.
At the end of this period, the external symptoms of the pathogen appeared and it was therefore possible to proceed with the evaluation of the intensity of the infection, on both the parts treated directly with the products (T), and also on the parts which had developed during the test (NT), by means of a visible percentage evaluation scale of the area of affected leafs; the scale comprises, as extremes, the value 100 (healthy plant) and the value 0 (completely infected plant).

wheat plants = experiment: Phytotoxicity (percentage of leaf necrosis) induced on wheat plants; format: in vivo, wheat (Salgemma variety); conditions: 125 ppm on wheat, scale 0 = completely healthy plant to 100 = completely necrotized plant
Method: as §1
At the same time, the phytotoxicity was evaluated (percentage of leaf necrosis) induced on the wheat plants by the application of the products: in this case, the evaluation scale varies from 0 (completely healthy plant) to 100 (completely necrotized plant).

CC1CC(C)(C)c2cccc(NC(=O)c3cn(C)nc3C(F)F)c21 (stereo not drawn) [CR-1, 3-difluoromethyl-1-methyl-N-(1,1,3-trimethyl-4-indanyl)-4-pyrazolecarboxamide]
Activity NT (parts which had developed during the test) (Erysiphe graminis): 65
Activity T (parts treated directly with the products) (Erysiphe graminis): 70
Phytotoxicity (wheat plants): 10

Cc1c(C(=O)Nc2ccc(F)c3c2CCC3(C)C)c(C(F)(F)F)nn1C [CR-2, 1,5-dimethyl-3-trifluoro-methyl-N-(1,1-dimethyl-7-fluoro-4-indanyl)-4-pyrazolecarboxamide]
Activity NT (parts which had developed during the test) (Erysiphe graminis): 15
Activity T (parts treated directly with the products) (Erysiphe graminis): 25
Phytotoxicity (wheat plants): 0

CC1CC(C)(C)c2c(F)ccc(NC(=O)c3cn(C)nc3C(F)F)c21 (stereo not drawn) [Compound N. 1, 3-difluoromethyl-N-(7-fluoro-1,1,3-trimethyl-4-indanyl)-1-methyl-4-pyrazolecarboxamide]
Activity NT (parts which had developed during the test) (Erysiphe graminis): 90
Activity T (parts treated directly with the products) (Erysiphe graminis): 95
Phytotoxicity (wheat plants): 0

Cc1nn(C)c(C)c1C(=O)Nc1c(F)ccc2c1CCC2(C)C [CR-3, 1,3,5-trimethyl-N-(1,1-dimethyl-5-fluoro-4-indanyl)-4-pyrazolecarboxamide]
Activity NT (parts which had developed during the test) (Erysiphe graminis): 0
Activity T (parts treated directly with the products) (Erysiphe graminis): 10
Phytotoxicity (wheat plants): 0
